# Measurements published in US9017719B2, “Injectable drug carrier comprising layered double hydroxide” (Nanohybrid Co., Ltd., priority 2005, dated 2015).
# Assay: In vivo toxicity test of LDH-MTX hybrid and MTX, intraperitoneal, death rate
# Details: mouse, ip, Balb/c mice, dosed weekly for three weeks
# Description: Like in the in vivo toxicity test of LDH of Example 2, small animal models, Balb/c mice (6-7 weeks old) were purchased and managed in cages (5 mice/cage). MTX was administered intraperitoneally to 10 mice at each concentration of 50, 75, and 100 mg/kg and the LDH-MTX hybrid synthesized in Example 3 was administered intraperitoneally to 10 mice at each concentration of 3, 6, 12.5, 25, 50, 75, and 100 mg/kg. The body weight of each mouse was measured every week for three weeks and a dosage of drug adjusted to the newly measured weight was administered. The body weights of the mice died during the test were excluded from statistical analysis. A death rate with respect to the concentration of MTX is represented by total number of mice survived in FIG. 7a and a death rate with respect to the concentration of the LDH-MTX hybrid is represented by the total number of mice survived in FIG. 7b. […] That is, the lethal dose of the LDH-MTX hybrid was equal to ⅓ of that of MTX.
structure (smiles),measurement,value
"CN(Cc1cnc2nc(N)nc(N)c2n1)c1ccc(C(=O)N[C@@H](CCC(=O)O)C(=O)O)cc1 [MTX, methotrexate]",LD50 at 3 weeks,75 mg/kg
